From patent US7655629B2, “Peptides and their use for the treatment of HIV infections” (priority 2002, dated 2010) come the findings set out here.

Positions of bridges follow the written chain, without caps; N, C: chain ends. Non-standard residues stand in square brackets, D forms with d. Residues, ends and D or L forms follow the SMILES beside them.

This assay deals with X4-tropic HIV-1 NL4-3. As to conditions: read-out: IC50 NL4-3; P4-CCR5 cells, HIV-1 NL4-3, peptide 2 h before infection, readout three days after infection. An excerpt:
These cells contain the β-galactosidase reporter gene under the control of the HIV-1 promoter. Thus, activation of the β-galactosidase reporter gene allows to measure the efficiency of HIV-1 infection and thus to quantitate the potency of HIV-1 inhibitors (Detheux M. et al., 2000; Journal of Experimental Medicine 192, 1501-1508; Münch et al., 2002; Antimicrobial Agents and Chemotherapy 46, 982-990).
To perform a typical infection assay, P4-CCR5 cells (Charneau et al., 1994; Journal of Molecular Biology 241, 651-662; Charneau et al., Virology. 1994 205, 247-53) were kept in RPMI 1640 medium supplemented with 10 volume % FCS. This cell line coexpresses CD4 and both HIV-1 coreceptors CCR5 and CXCR4 and contains the β-galactosidase gene under the control of the HIV-1 promoter. Virus stocks were generated by the calcium coprecipitation method as described (Detheux et al., J Exp Med. 192:1501-8; 2000), and the p24 antigen levels were quantitated with an HIV p24 ELISA kit obtained through the NIH AIDS Reagent Program. Cells were seeded in flat-bottomed 96-well dishes, cultured overnight, and incubated with the different doses of peptide for 2 h before infection with virus containing 1 ng of p24 antigen in a total volume of […] of medium. After overnight incubation, cells were washed twice and cultivated in fresh culture medium without inhibitory peptide. Three days after infection the cells were lysed, and infectivity was quantitated using the Galacto-Light Plus™ chemiluminescence reporter assay kit (Tropix, Bedford, Mass.) as recommended by the manufacturer. All infections were performed in quintuplicate.
Regarding `CC[C@H](C)[C@H](NC(=O)[C@H](C)NC(=O)[C@H](CCC(=O)O)NC(=O)[C@@H](N)CC(C)C)C(=O)N1CCC[C@H]1C(=O)N[C@H]1CSSC[C@@H](C(=O)N[C@H](C(=O)N[C@@H](C)C(=O)N[C@@H](Cc2ccccc2)C(=O)N[C@@H](CC(N)=O)C(=O)N[C@@H](CCCCN)C(=O)N2CCC[C@H]2C(=O)N[C@@H](Cc2ccccc2)C(=O)N[C@H](C(=O)N[C@@H](Cc2ccccc2)C(=O)O)C(C)C)C(C)C)NC(=O)[C@H]2CCCN2C(=O)[C@@H]2CCCN2C(=O)[C@H]([C@@H](C)CC)NC(=O)CNC1=O` [VIR-355, LEAIPCGIPpCVAFNKPFVF] (H-LEAIPCGIP[dP]CVAFNKPFVF-OH; disulfide 6-11), the IC50 worked out at 582 nM.

With `CC[C@H](C)[C@H](NC(=O)[C@H](C)NC(=O)[C@H](CCC(=O)O)NC(=O)[C@@H](N)CC(C)C)C(=O)N1CCC[C@H]1C(=O)N[C@H]1CSSC[C@@H](C(=O)N[C@@H](Cc2ccccc2)C(=O)N[C@@H](C)C(=O)N[C@@H](Cc2ccccc2)C(=O)N[C@@H](CC(N)=O)C(=O)N[C@@H](CCCCN)C(=O)N[C@@H](CC(=O)O)C(=O)N[C@@H](Cc2ccccc2)C(=O)N[C@H](C(=O)N[C@@H](Cc2ccccc2)C(=O)O)C(C)C)NC(=O)[C@@H]2CCCN2C(=O)[C@@H]2CCCN2C(=O)[C@H]([C@@H](C)CC)NC(=O)[C@H](CO)NC1=O` [VIR-356] (H-LEAIPCSIPPCFAFNKDFVF-OH; disulfide 6-11), the IC50 was found to be 700 nM.

`CC[C@H](C)[C@H](NC(=O)[C@H](C)NC(=O)[C@H](CCC(=O)O)NC(=O)[C@@H](N)CC(C)C)C(=O)N1CCC[C@H]1C(=O)N[C@@H](CCSC)C(=O)N[C@@H](CO)C(=O)N[C@H](C(=O)N1CCC[C@H]1C(=O)N1CCC[C@@H]1C(=O)N[C@@H](CCC(=O)O)C(=O)N[C@@H](Cc1ccccc1)C(=O)N[C@@H](CC(C)C)C(=O)N[C@@H](Cc1ccccc1)C(=O)NCC(=O)N[C@@H](CCCCN)C(=O)N1CCC[C@H]1C(=O)N[C@@H](C)C(=O)N[C@@H](Cc1ccccc1)C(=O)N[C@H](C(=O)N[C@@H](Cc1ccccc1)C(=O)O)C(C)C)[C@@H](C)CC` [VIR-376, LEAIPMSIPpEFLFGKPAFVF] (H-LEAIPMSIP[dP]EFLFGKPAFVF-OH): the IC50 is 568 nM.

Take `CC[C@H](C)[C@H](NC(=O)[C@H](C)NC(=O)[C@H](CCC(=O)O)NC(=O)[C@@H](N)CC(C)C)C(=O)N1CCC[C@H]1C(=O)N[C@@H](CCSC)C(=O)N[C@@H](CO)C(=O)N[C@H](C(=O)N1CCC[C@H]1C(=O)N1CCC[C@@H]1C(=O)N[C@@H](CCC(=O)O)C(=O)N[C@@H](Cc1ccccc1)C(=O)N[C@@H](CC(C)C)C(=O)N[C@@H](Cc1ccccc1)C(=O)NCC(=O)N[C@@H](CCCCN)C(=O)N1CCC[C@H]1C(=O)NCC(=O)N[C@@H](Cc1ccccc1)C(=O)N[C@H](C(=O)N[C@@H](Cc1ccccc1)C(=O)O)C(C)C)[C@@H](C)CC` [VIR-377, LEAIPMSIPpEFLFGKPGFVF] (H-LEAIPMSIP[dP]EFLFGKPGFVF-OH): the IC50 was determined as 487 nM.

With `CC[C@H](C)[C@H](NC(=O)[C@H](C)NC(=O)[C@H](CCC(=O)O)NC(=O)[C@@H](N)CC(C)C)C(=O)N1CCC[C@H]1C(=O)N[C@@H](CCSC)C(=O)N[C@@H](CO)C(=O)N[C@H](C(=O)N1CCC[C@H]1C(=O)N1CCC[C@@H]1C(=O)N[C@@H](CCC(=O)O)C(=O)N[C@@H](Cc1ccccc1)C(=O)N[C@@H](CC(C)C)C(=O)N[C@@H](Cc1ccccc1)C(=O)NCC(=O)N[C@@H](CCCCN)C(=O)N1CCC[C@H]1C(=O)N[C@@H](Cc1ccccc1)C(=O)N[C@@H](Cc1ccccc1)C(=O)N[C@H](C(=O)N[C@@H](Cc1ccccc1)C(=O)O)C(C)C)[C@@H](C)CC` [VIR-380, LEAIPMSIPpEFLFGKPFFVF] (H-LEAIPMSIP[dP]EFLFGKPFFVF-OH), the IC50 turned out to be 540 nM.

As for `CC[C@H](C)[C@H](NC(=O)[C@H](C)NC(=O)[C@H](CCC(=O)O)NC(=O)[C@@H](N)CC(C)C)C(=O)N1CCC[C@H]1C(=O)N[C@@H](CCSC)C(=O)N[C@@H](CO)C(=O)N[C@H](C(=O)N1CCC[C@H]1C(=O)N1CCC[C@@H]1C(=O)N[C@@H](CCC(=O)O)C(=O)N[C@@H](Cc1ccccc1)C(=O)N[C@@H](CC(C)C)C(=O)N[C@@H](Cc1ccccc1)C(=O)NCC(=O)N[C@@H](CCCCN)C(=O)N1CCC[C@H]1C(=O)N[C@@H](CCC(=O)O)C(=O)N[C@@H](Cc1ccccc1)C(=O)N[C@H](C(=O)N[C@@H](Cc1ccccc1)C(=O)O)C(C)C)[C@@H](C)CC` [VIR-384, LEAIPMSIPpEFLFGKPEFVF] (H-LEAIPMSIP[dP]EFLFGKPEFVF-OH), the half-maximal inhibitory concentration (IC50) was 622 nM.

Regarding `CC[C@H](C)[C@H](NC(=O)[C@H](C)NC(=O)[C@H](CCC(=O)O)NC(=O)[C@@H](N)CC(C)C)C(=O)N1CCC[C@H]1C(=O)N[C@@H](CCSC)C(=O)N[C@@H](CO)C(=O)N[C@@H](C)C(=O)N1CCC[C@H]1C(=O)N1CCC[C@@H]1C(=O)N[C@@H](CCC(=O)O)C(=O)N[C@@H](Cc1ccccc1)C(=O)N[C@@H](CC(C)C)C(=O)N[C@@H](Cc1ccccc1)C(=O)NCC(=O)N[C@@H](CCCCN)C(=O)N1CCC[C@H]1C(=O)N[C@@H](Cc1ccccc1)C(=O)N[C@H](C(=O)N[C@@H](Cc1ccccc1)C(=O)O)C(C)C` [VIR-396, LEAIPMSAPpEFLFGKPFVF] (H-LEAIPMSAP[dP]EFLFGKPFVF-OH), the IC50 was 628 nM.

Take `CC[C@H](C)[C@H](NC(=O)[C@H](C)NC(=O)[C@H](CCC(=O)O)NC(=O)[C@@H](N)CC(C)C)C(=O)N1CCC[C@H]1C(=O)N[C@@H](CCSC)C(=O)N[C@@H](CO)C(=O)N[C@@H](Cc1ccccc1)C(=O)N1CCC[C@H]1C(=O)N1CCC[C@@H]1C(=O)N[C@@H](CCC(=O)O)C(=O)N[C@@H](Cc1ccccc1)C(=O)N[C@@H](CC(C)C)C(=O)N[C@@H](Cc1ccccc1)C(=O)NCC(=O)N[C@@H](CCCCN)C(=O)N1CCC[C@H]1C(=O)N[C@@H](Cc1ccccc1)C(=O)N[C@H](C(=O)N[C@@H](Cc1ccccc1)C(=O)O)C(C)C` [VIR-400, LEAIPMSFPpEFLFGKPFVF] (H-LEAIPMSFP[dP]EFLFGKPFVF-OH): the concentration for half-maximal inhibition (IC50) was found to be 590 nM.

`CC[C@H](C)[C@H](NC(=O)[C@H](C)NC(=O)[C@H](CCC(=O)O)NC(=O)[C@@H](N)CC(C)C)C(=O)N1CCC[C@H]1C(=O)N[C@@H](CCSC)C(=O)NCC(=O)N[C@H](C(=O)N1CCC[C@H]1C(=O)N1CCC[C@@H]1C(=O)N[C@@H](CCC(=O)O)C(=O)N[C@@H](Cc1ccccc1)C(=O)N[C@@H](CC(C)C)C(=O)N[C@@H](Cc1ccccc1)C(=O)NCC(=O)N[C@@H](CCCCN)C(=O)N1CCC[C@H]1C(=O)N[C@@H](Cc1ccccc1)C(=O)N[C@H](C(=O)N[C@@H](Cc1ccccc1)C(=O)O)C(C)C)[C@@H](C)CC` [VIR-416, LEAIPMGIPpEFLFGKPFVF] (H-LEAIPMGIP[dP]EFLFGKPFVF-OH): the IC50 was 369 nM.

On to `CC[C@H](C)[C@H](NC(=O)[C@H](CCCCN)NC(=O)[C@H](CCC(=O)O)NC(=O)[C@@H](N)CC(C)C)C(=O)N1CCC[C@H]1C(=O)N[C@@H](CCSC)C(=O)NCC(=O)N[C@H](C(=O)N1CCC[C@H]1C(=O)N1CCC[C@@H]1C(=O)N[C@@H](CCC(=O)O)C(=O)N[C@@H](Cc1ccccc1)C(=O)N[C@@H](CC(C)C)C(=O)N[C@@H](Cc1ccccc1)C(=O)NCC(=O)N[C@@H](CCCCN)C(=O)N1CCC[C@H]1C(=O)N[C@@H](Cc1ccccc1)C(=O)N[C@H](C(=O)N[C@@H](Cc1ccccc1)C(=O)O)C(C)C)[C@@H](C)CC` [VIR-418, LEKIPMGIPpEFLFGKPFVF] (H-LEKIPMGIP[dP]EFLFGKPFVF-OH), for which the IC50 came to 500 nM.
